Laboratory results as given in patent publication US20180094051A1, “METHOD FOR INHIBITING LYMPHANGIOGENESIS BY ADMINISTRATION OF AN INHIBITOR OF THE CXCL12 PATHWAY” (Tsinghua University, priority 2012, published 2018).
Entries after “also recorded” stand apart in the source; their conditions may differ.

B1: CXCR4: Printed in b110 as the treating agent; apparently a misprint for VEGF-C (protein)
chain: MEPISVSIYTSDNYSEEVGSGDYDSNKEPCFRDENVHFNRIFLPTIYFIIFLTGIVGNGLVILVMGYQKKLRSMTDKYRLHLSVADLLFVITLPFWAVDAMADWYFGKFLCKAVHIIYTVNLYSSVLILAFISLDRYLAIVHATNSQRPRKLLAEKAVYVGVWIPALLLTIPDFIFADVSQGDISQGDDRYICDRLYPDSLWMVVFQFQHIMVGLILPGIVILSCYCIIISKLSHSKGHQKRKALKTTVILILAFFACWLPYYVGISIDSFILLGVIKQGCDFESIVHKWISITEALAFFHCCLNPILYAFLGAKFKSSAQHALNSMSRGSSLKILSKGKRGGHSSVSTESESSSFHSS

Key:
[1] = test system: mouse lymphatic endothelial cells; assay: Cell chemotaxis assay (Transwell); format: cell-based; details: antibodies 5 μg/mL, AMD3100 25 μg/mL, 6 hours; for effect on migration of mouse lymphatic endothelial cells induced by CXCL12: CXCL12 100 ng/mL, LY294002 and U0126 10 μM, pretreated 30 minutes
Protocol: The migration ability of mouse lymphatic endothelial cells was assessed using 8-μm-pore Transwell bucket (filter membrane) (purchased from Costar). The transwell bucket was placed into a 24-well plate. Mouse primary lymphatic endothelial cells (mLECs) at passage 2 or 3 in good conditions were selected, and divided into five groups, four parallel samples for each group and approximately 2×10^4 cells for each parallel sample. The cells were digested with trypsin, resuspended in 200 μL of fresh serum-free endothelial cell culture medium (ECM, purchased from Sciencell), and then seeded into the inner chambers of the Transwell bucket. To each outer chamber was added 800 μL of serum-free endothelial cell culture medium mixed with 1 ng/mL, 20 ng/mL, 100 ng/mL of chemokine CXCL12 (purchased from R&D Systems), 100 ng/mL of VEGF-C (purchased from R&D Systems) and PBS control, respectively. The culture plate was placed into an incubator and incubated under 5% CO2 at 37° C. for 6 hours.
After taking out the culture plate, the Transwell bucket was fixed in 4% paraformaldehyde solution for 15 minutes. The Transwell bucket was rinsed twice in PBS, stained with 0.1% crystal violet solution for 30 minutes, and then washed with PBS to remove the non-specifically bound crystal violet. The cells inside Transwell membrane were wiped off gently with medical cotton swabs. Note that the cells on the edge of the membrane should also be wiped off to avoid affecting cell counting. The Transwell bucket was placed under a microscope (Olympus IX71 microscope), and the cells migrated from the outer membrane were observed by microscopy. 8 fields per group were photographed randomly to count the cells.
The migration ability of mouse lymphatic endothelial cells was assessed using 8-μm-pore Transwell bucket (purchased from Costar). The bucket was placed into a 24-well plate. Mouse primary lymphatic endothelial cells (mLECs) at passage 2 or 3 in good conditions were selected, and divided into six groups, four parallel samples for each group, and approximately 2×10^4 cells for each parallel sample. The cells were digested with trypsin and resuspended in 200 μL, of fresh serum-free endothelial cell culture medium (ECM, purchased from Sciencell). The cells were pretreated for 30 minutes with dimethyl sulfoxide (DMSO) as a control, protein kinase B (Akt) antagonist LY294002 (10 μM, purchased from Sigma-Aldrich) and extracellular signal-regulated kinase (Erk) antagonist U0126 (10 μM, purchased from Sigma-Aldrich), respectively, and then seeded into the inner chambers of the Transwell bucket. […] The cells were stained and the number of the migrated cells was counted.
The migration ability of mouse lymphatic endothelial cells was detected by using 8-μm-pore Transwell bucket (purchased from Costar). […]

[2] = test system: newly formed lymphatic vessels; assay: In vivo Matrigel plug assay (lymphangiogenesis); design: species or system BALB/c mice; details: CXCL12 500 ng/mL; antibodies 10 μg/mL, AMD3100 50 μg/mL; 8 days
Protocol: Matrigel plug assay was conducted as previously reported^[44]. BALB/C mice (5 weeks old, female, purchased from Vital River Laboratories, Beijing) were divided into five groups, five mice each group. Growth factor-free Matrigel (9-10 mg/mL, purchased from Becton-Dickinson Biosciences) containing 20 ng/mL, 100 ng/mL, 500 ng/mL of chemokine CXCL12 (purchased from R&D Systems), 500 ng/mL of VEGF-C (purchased from R&D Systems), and PBS control, respectively, was injected subcutaneously into the BALB/c mice along the abdominal midline. The Matrigel formed a solid plug in the mice, and the agent was slowly released from the Matrigel to stimulate new mouse lymphatic vessels to be formed and grown into the Matrigel. 8 days later, the Matrigel was removed carefully.
After being washed in PBS, the Matrigel were fixed in 30% sucrose solution at 4° C. overnight. Frozen sections in a thickness of about 10 μm were prepared and stored at −20° C. The frozen sections were blocked with a blocking solution in a humidified chamber at room temperature for 1 hour. The blocking solution was PBS containing 10% normal goat serum. […]
The newly formed lymphatic vessels in the Matrigel were detected by immunofluorescence, and observed and imaged under a laser confocal microscope (Nikon A1) using the imaging and statistic software NIS-Elements AR 3.0. […]

chemokine receptor CXCR4 = assay: Immunoblotting of CXCR4 in lymphatic endothelial cells (incl. HIF-1α RNA interference); format: cell-based; details: mouse lymphatic endothelial cells, 100 ng/mL VEGF-C, 6, 12 and 24 hours
Protocol: Mouse primary lymphatic endothelial cells at passage 2 or 3 in good condition were selected, and starved overnight by replacing the culture medium with a fresh medium free of serum and growth factors. Then the medium was replaced with a medium containing 100 ng/mL of VEGF-C. The cells were incubated for 6, 12 and 24 hours, respectively, and then trypsinized and collected by centrifugation for detecting the expression level of chemokine receptor CXCR4 in the cells by immunoblotting.
The samples were subjected to SDS-PAGE (the concentration of separation gel was 15%). Protein bands were transferred to polyvinylidene difluoride (PVDF) membrane (purchased from Millipore) at 100 mA for 3 hours using an electroblotting device in ice bath. TBST buffer (20 mM Tris, pH7.4, 150 mM NaCl, 0.1% Tween-20) was formulated for preparing blocking solution, primary antibody solution and secondary antibody solution. The PVDF membrane was further incubated in blocking solution containing 5% skim milk for 1 hour at room temperature with gentle shaking. The membrane was then washed with TBST for 5 times, 5 minutes each. […]
The siRNA for interfering with the chemical synthesis of HIF-1α was purchased from Santa Cruz Biotechnology, and the negative control siRNA was purchased from GenePharma, Shanghai. […] HIF-1α knock-down efficiency was detected by immunoblotting. […]

Row | Molecule | effect on migration of mouse lymphatic endothelial cells induced by CXCL12 [1] | effect on activity of VEGF-C (migration of mouse lymphatic endothelial cells) ([1]; VEGF-C 100 ng/mL) | effect on lymphangiogenesis induced by CXCL12 in Matrigel plug [2] | expression level of CXCR4 (chemokine receptor CXCR4)
1 | c1cc(CN2CCCNCCNCCCNCC2)ccc1CN1CCCNCCNCCCNCC1 [AMD3100] | could inhibit the migration of mouse lymphatic endothelial cells induced by CXCL12; also recorded: activity of chemokine CXCL12 was inhibited | had no effect on the activity of growth factor VEGF-C; also recorded: the activity of VEGF-C was not affected | could significantly reduce the activity of chemokine CXCL12 | –
2 | N#CC(=C(/N)Sc1ccccc1N)/C(C#N)=C(\N)Sc1ccccc1N [U0126] | inhibited the lymphatic endothelial cell migration induced by chemokine CXCL12 | – | – | –
3 | B1 | – | – | – | could upregulate the expression level of CXCR4
